Several values for one entry are separate records, joined by “and”; a condition that tells them apart may be missing. Equal entries are not always repeated. Activity calls are given as the source filed them. The calls are words filed in the database; no cut-off is given here. *1 amine or outer side, *2 acyl side, *3 side chain or, on linkers, in order; H or OH if unused. Where a SMILES comes first, the peptide text is derived from it. [ ]: non-standard residue; d: D form. The star is where a group is joined. GluureaLys(ε-3-ClBenzyl) = O=C(O)CC[C@H](NC(=O)N[C@@H](CCCCN(Cc1cccc(Cl)c1)*)C(=O)O)C(=O)O; Dolaproine = CO[C@@H]([C@@H]1CCCN1)[C@@H](C)C(=O)O; Dil = CC[C@H](C)[C@H](NC)[C@@H](CC(=O)O)OC; X1 = O=C(CCCc1cn(CCCN[*:1])nn1)[*:2]; PABC = O=C(OCc1ccc(N[*:1])cc1)[*:2]; X2 = C[C@@H](N*)[C@@H](O)c1ccccc1; Cit = NC(=O)NCCC[C@H](N)C(=O)O; Suc = O=C(CCC(=O)[*:2])[*:1]; NMeV = CN[C@H](C(=O)O)C(C)C; Ahx = NCCCCCC(=O)O
Legend:
[1] = molecular target: T1, Cytochrome P450 2B6 (Homo sapiens, UniProt P20813); assay: Drug metabolism assessed as human liver microsome CYP2B6-mediatd metabolism; format: ADME; details: microsomes
T1 sequence (P20813 whole entry): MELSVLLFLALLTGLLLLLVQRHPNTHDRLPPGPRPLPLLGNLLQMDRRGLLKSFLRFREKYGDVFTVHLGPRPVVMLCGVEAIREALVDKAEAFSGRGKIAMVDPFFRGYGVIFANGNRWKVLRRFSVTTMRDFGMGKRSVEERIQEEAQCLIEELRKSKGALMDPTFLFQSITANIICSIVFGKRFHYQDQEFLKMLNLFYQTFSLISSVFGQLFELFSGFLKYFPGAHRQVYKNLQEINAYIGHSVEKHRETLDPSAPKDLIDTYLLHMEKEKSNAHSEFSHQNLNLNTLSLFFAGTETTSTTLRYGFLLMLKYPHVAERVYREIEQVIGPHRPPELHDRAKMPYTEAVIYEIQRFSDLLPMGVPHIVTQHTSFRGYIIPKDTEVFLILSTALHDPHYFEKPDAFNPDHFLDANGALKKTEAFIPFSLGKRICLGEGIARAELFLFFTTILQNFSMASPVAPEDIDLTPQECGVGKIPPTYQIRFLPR

[2] = Acute toxicity in iv dosed ICR mouse assessed as maximum tolerated dose; format: organism-based; details: in vivo, read-out: MNTD
[3] = Toxicity in rat assessed as morphological changes in liver at 150 to 225 microg/kg, iv; format: tissue-based; details: in vivo, dose 150-225 µg/kg
[4] = Chronic toxicity in rabbit assessed as mortality rate at 5.4 microg/kg, iv dosed measured at day 4; format: organism-based, Oryctolagus cuniculus; details: in vivo, 0.0054 mg/kg, dose 5.4 µg/kg, read-out: Activity
[5] = Clearance in rabbit at 0.81 mg/kg, iv; format: ADME, organism-based, Oryctolagus cuniculus; details: in vivo
[6] = Toxicity in rat assessed as morphological changes in adrenal gland at 150 to 225 microg/kg, iv; format: tissue-based; details: in vivo, dose 150-225 µg/kg
[7] = Toxicity in rabbit assessed as morphological changes in mucosa of thyroid gland at 81 to 122 microg/kg, iv; format: tissue-based, Oryctolagus cuniculus; details: in vivo, dose 81-122 µg/kg
[8] = Toxicity in rabbit assessed as morphological changes in brain gyrus at 81 to 122 microg/kg, iv; format: tissue-based, Oryctolagus cuniculus; details: in vivo, dose 81-122 µg/kg
[9] = Acute toxicity in iv dosed Wistar rat assessed as median mortality dose; format: organism-based; details: in vivo
[10] = system: CWR22R; assay: Cytotoxicity against human 22Rv1 cells expressing PMSA measured using MTT assay; format: functional
[11] = system: Salmonella typhimurium; assay: Mutagenecity in Salmonella typhimurium TA100 without metabolic activation system at 10000 ug/ml by Ames test; format: toxicity, organism-based; details: salmonella enterica subsp. enterica serovar typhimurium; dose 10000 µg/ml
[12] = system: Salmonella typhimurium; assay: Mutagenecity in Salmonella typhimurium TA97 without metabolic activation system at 10000 ug/ml by Ames test; format: toxicity, organism-based; details: salmonella enterica subsp. enterica serovar typhimurium; dose 10000 µg/ml
[13] = system: Salmonella typhimurium; assay: Mutagenecity in Salmonella typhimurium TA97 in presence of metabolic activation system at 1 ug/ml by Ames test; format: toxicity, organism-based; details: salmonella enterica subsp. enterica serovar typhimurium; dose 1 µg/ml
[14] = AUC (0 to t) in Wistar rat at 1.5 mg/kg, iv; format: ADME, organism-based; design: dose 1.5 mg/kg; details: in vivo
[15] = Toxicity in rat assessed as morphological changes in bronchi at 150 to 225 microg/kg, iv; details: in vivo, dose 150-225 µg/kg
[16] = AUC (0 to infinity) in rabbit at 0.81 mg/kg, iv; format: ADME, organism-based, Oryctolagus cuniculus; design: time infinity, route intravenous, dose 0.81 mg/kg; details: in vivo
[17] = Toxicity in rabbit assessed as morphological changes in spleen at 81 to 122 microg/kg, iv; format: tissue-based, Oryctolagus cuniculus; details: in vivo, dose 81-122 µg/kg
[18] = system: Salmonella typhimurium; assay: Mutagenecity in Salmonella typhimurium TA97 in presence of metabolic activation system at 1000 ug/ml by Ames test; format: toxicity, organism-based; details: salmonella enterica subsp. enterica serovar typhimurium; dose 1000 µg/ml
[19] = Toxicity in rat assessed as morphological changes in kidney at 150 to 225 microg/kg, iv; format: tissue-based; details: in vivo, dose 150-225 µg/kg
[20] = molecular target: Cathepsin B (Homo sapiens, UniProt P07858); assay: Stability of compound assessed as recombinant cathepsin B (unknown origin) mediated hydrolysis; format: ADME
[21] = Ratio of AUC (t to infinity) to AUC (0 to infinity) in rat at 1.5 mg/kg, iv; format: ADME, organism-based; details: in vivo
[22] = system: Salmonella typhimurium; assay: Mutagenecity in Salmonella typhimurium TA98 without metabolic activation system at 10 ug/ml by Ames test; format: toxicity, organism-based; details: salmonella enterica subsp. enterica serovar typhimurium; dose 10 µg/ml
[23] = AUC (0 to t) in rabbit at 0.81 mg/kg, iv; format: ADME, organism-based, Oryctolagus cuniculus; design: dose 0.81 mg/kg; details: in vivo
[24] = system: PC-3; assay: Induction of intracellular reactive oxygen species production in human PC-3 cells incubated for 1 hr measured at CC50 concentration by amperometric method; format: functional, cell-based
[25] = system: Salmonella typhimurium; assay: Mutagenecity in Salmonella typhimurium TA97 in presence of metabolic activation system at 10 ug/ml by Ames test; format: toxicity, organism-based; details: salmonella enterica subsp. enterica serovar typhimurium; dose 10 µg/ml
[26] = system: Salmonella typhimurium; assay: Mutagenecity in Salmonella typhimurium TA98 without metabolic activation system at 1 ug/ml by Ames test; format: toxicity, organism-based; details: salmonella enterica subsp. enterica serovar typhimurium; dose 1 µg/ml
[27] = Toxicity in rat assessed as morphological changes in abdominal cavity at 150 to 225 microg/kg, iv; details: in vivo, dose 150-225 µg/kg
[28] = system: Salmonella typhimurium; assay: Mutagenecity in Salmonella typhimurium TA97 without metabolic activation system at 1000 ug/ml by Ames test; format: toxicity, organism-based; details: salmonella enterica subsp. enterica serovar typhimurium; dose 1000 µg/ml
[29] = Toxicity in rat assessed as morphological changes in cerebrum at 150 to 225 microg/kg, iv; format: tissue-based; details: in vivo, dose 150-225 µg/kg
[30] = Toxicity in rabbit assessed as morphological changes in spleen pulp at 81 to 122 microg/kg, iv; format: tissue-based, Oryctolagus cuniculus; details: in vivo, dose 81-122 µg/kg
[31] = Toxicity in rabbit assessed as morphological changes in heart at 81 to 122 microg/kg, iv; format: tissue-based, Oryctolagus cuniculus; details: in vivo, dose 81-122 µg/kg
[32] = Stability of the compound in human liver microsome; format: ADME; details: microsomes
[33] = molecular target: Cytochrome P450 2C19 (Homo sapiens, UniProt P33261); assay: Inhibition of CYP2C19 in human liver microsome using mephenytoin as substrate; format: ADME, microsomes
[34] = Toxicity in rat assessed as morphological changes in spleen pulp at 150 to 225 microg/kg, iv; format: tissue-based; details: in vivo, dose 150-225 µg/kg
[35] = Initial plasma concentration in rabbit plasma at 0.81 mg/kg, iv; format: ADME, organism-based, Oryctolagus cuniculus
[36] = molecular target: Cytochrome P450 2D6 (Homo sapiens, UniProt P10635); assay: Drug metabolism assessed as human liver microsome CYP2D6-mediatd metabolism; format: ADME; details: microsomes
[37] = Toxicity in rat assessed as morphological changes in peritoneum at 150 to 225 microg/kg, iv; format: tissue-based; details: in vivo, dose 150-225 µg/kg
[38] = Chronic toxicity in rat assessed as diarrhea at 10 microg/kg, iv; details: in vivo, 0.01 mg/kg, dose 10 µg/kg
[39] = system: Salmonella typhimurium; assay: Mutagenecity in Salmonella typhimurium TA97 in presence of metabolic activation system at 10000 ug/ml by Ames test; format: toxicity, organism-based; details: salmonella enterica subsp. enterica serovar typhimurium; dose 10000 µg/ml
[40] = Initial plasma concentration in Wistar rat plasma at 1.5 mg/kg, iv; format: ADME, organism-based
[41] = AUC (0 to infinity) in Wistar rat at 1.5 mg/kg, iv; format: ADME, organism-based; design: time infinity, route intravenous, dose 1.5 mg/kg; details: in vivo
[42] = Toxicity in rat assessed as morphological changes in heart at 150 to 225 microg/kg, iv; format: tissue-based; details: in vivo, dose 150-225 µg/kg
[43] = Toxicity in rat assessed as morphological changes in testes at 150 to 225 microg/kg, iv; details: in vivo, dose 150-225 µg/kg

Chain of Cytochrome P450 2D6 (P10635 whole entry): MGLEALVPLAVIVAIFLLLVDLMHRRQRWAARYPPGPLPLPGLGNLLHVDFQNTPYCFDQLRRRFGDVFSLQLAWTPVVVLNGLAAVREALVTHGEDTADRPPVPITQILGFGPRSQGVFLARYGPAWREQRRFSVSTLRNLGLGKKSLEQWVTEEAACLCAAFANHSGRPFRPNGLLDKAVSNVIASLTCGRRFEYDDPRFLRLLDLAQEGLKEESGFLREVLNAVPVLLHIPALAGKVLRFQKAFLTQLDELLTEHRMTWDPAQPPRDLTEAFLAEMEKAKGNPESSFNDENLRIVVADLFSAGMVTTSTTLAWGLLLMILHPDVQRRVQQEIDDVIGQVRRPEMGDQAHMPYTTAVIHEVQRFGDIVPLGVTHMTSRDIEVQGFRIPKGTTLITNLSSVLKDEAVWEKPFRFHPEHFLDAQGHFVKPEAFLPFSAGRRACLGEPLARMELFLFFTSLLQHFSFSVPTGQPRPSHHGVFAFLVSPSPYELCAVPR
Chain of Cytochrome P450 2C19 (P33261 whole entry): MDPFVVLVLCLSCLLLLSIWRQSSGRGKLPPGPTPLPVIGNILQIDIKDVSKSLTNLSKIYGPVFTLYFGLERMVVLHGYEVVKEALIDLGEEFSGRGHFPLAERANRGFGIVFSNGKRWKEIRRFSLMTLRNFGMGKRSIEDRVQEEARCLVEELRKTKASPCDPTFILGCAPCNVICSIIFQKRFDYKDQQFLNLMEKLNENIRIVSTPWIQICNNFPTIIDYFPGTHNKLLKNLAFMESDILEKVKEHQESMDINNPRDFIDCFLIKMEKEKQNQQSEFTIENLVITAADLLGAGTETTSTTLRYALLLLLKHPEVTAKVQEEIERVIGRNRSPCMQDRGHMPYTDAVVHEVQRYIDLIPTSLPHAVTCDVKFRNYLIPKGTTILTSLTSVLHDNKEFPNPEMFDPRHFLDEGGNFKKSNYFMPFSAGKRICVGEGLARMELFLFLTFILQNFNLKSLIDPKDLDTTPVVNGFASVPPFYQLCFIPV

CC[C@H](C)[C@@H]([C@@H](CC(=O)N1CCC[C@H]1[C@H](OC)[C@@H](C)C(=O)N[C@H](C)[C@@H](O)c1ccccc1)OC)N(C)C(=O)[C@@H](NC(=O)[C@H](C(C)C)N(C)C(=O)OCc1ccc(NC(=O)[C@H](CCCNC(N)=O)NC(=O)[C@@H](NC(=O)CCCc2cn(CCCNC(=O)[C@H](Cc3ccc(O)cc3)NC(=O)[C@H](Cc3ccccc3)NC(=O)CCC(=O)NCCCCCC(=O)N(CCCC[C@H](NC(=O)N[C@@H](CCC(=O)O)C(=O)O)C(=O)O)Cc3cccc(Cl)c3)nn2)C(C)C)cc1)C(C)C ({GluureaLys(ε-3-ClBenzyl)-Ahx-Suc}-FY[X1]V[Cit][PABC][NMeV]V[Dil][Dolaproine]-X2)
Drug metabolism [1]: Metabolite_Notdetected | MTD [2]: 3 mg/kg | Activity [3]: Non-Toxic | mortality at 4 day [4]: 100% | clearance [5]: 0.4 mL/min/kg | Activity [6]: Non-Toxic | Activity [7]: Non-Toxic | Activity [8]: Non-Toxic | LD50 [9]: 4.9 mg/kg and 2.2 µmol/kg | CC50 [10]: 29 nM | Activity [11]: Non-Toxic | Activity [12]: Non-Toxic | Activity [13]: Non-Toxic | AUC(0-t) [14]: 76000 ng·h/mL | Activity [15]: Non-Toxic | AUC(0-inf) [16]: 35000 ng·h/mL | Activity [17]: Non-Toxic | Activity [18]: Non-Toxic | Activity [19]: Non-Toxic | Stability [20]: Stable | Ratio [21]: 14% | Activity [22]: Non-Toxic | AUC(0-t) [23]: 31000 ng·h/mL | Activity [24]: Active | Activity [25]: Non-Toxic | Activity [26]: Non-Toxic | Activity [27]: Non-Toxic | Activity [28]: Non-Toxic | Activity [29]: Non-Toxic | Activity [30]: Non-Toxic | Activity [31]: Non-Toxic | Stability [32]: Unstable | IC50 [33]: > 25000 nM | Activity [34]: Non-Toxic | C0 [35]: 11000 ng/mL | Drug metabolism [36]: Metabolite_Notdetected | Activity [37]: Non-Toxic | Activity [38]: Toxic | Activity [39]: Non-Toxic | C0 [40]: 31000 ng/mL | AUC(0-inf) [41]: 88000 ng·h/mL | Activity [42]: Non-Toxic | Activity [43]: Non-Toxic

— ChEMBL document CHEMBL5034037, “Synthesis, Characterization, and Preclinical Evaluation of a Small-Molecule Prostate-Specific Membrane Antigen-Targeted Monomethyl Auristatin E Conjugate” (J Med Chem, 2021)
